The nature of this series: Dynamic moisture sorption gravimetry (DMSG), hygroscopicity. In kind it is physicochemical. The conditions noted are these: for hygroscopicity (in words): DMSG data; for moisture sorption referred to the weight of the sample: DMSG, change in RH of 5% per hour.

Entries after “also recorded” stand apart in the source; their conditions may differ.

Protocol: DMSG was performed using an SPS11-100n instrument (Projekt Messtechnik) at a constant temperature of 25° C. and a change in RH of 5% per hour including isohumid conditions for 5 hours at 0% RH and for 2 hours at 50% RH.

For the compound `CCN(CC)CCNC(=O)c1c(C)[nH]c(/C=C2\C(=O)Nc3ccc(F)cc32)c1C` [Polymorph I, N-[2-(diethylamino)ethyl]-5-[(5-fluoro-1,2-dihydro-2-oxo-3H-indol-3-ylidene)methyl]-2,4-dimethyl-1H-pyrrole-3-carboxamide], the “hygroscopicity (in words)” value was “low hygroscopicity; also recorded: only very slightly hygroscopic”. Further, the “hygroscopicity (in words)” value (listed as polymorph I) is recorded as “only slightly hygroscopic”. Further, the “hygroscopicity (in words)” value (listed as polymorphic form I) is listed as “very low hygroscopicity”. The “moisture sorption referred to the weight of the sample” value (25° C.) is given as “about 1%”.
On to `CCN(CC)CCNC(=O)c1c(C)[nH]c(/C=C2\C(=O)Nc3ccc(F)cc32)c1C` [Polymorph II, N-[2-(diethylamino)ethyl]-5-[(5-fluoro-1,2-dihydro-2-oxo-3H-indol-3-ylidene)methyl]-2,4-dimethyl-1H-pyrrole-3-carboxamide], for which the “hygroscopicity (in words)” value is given as “clearly hygroscopic”. Also, the “hygroscopicity (in words)” value (listed as polymorphic form II) was “slightly more hygroscopic; also recorded: some hygroscopicity”. Besides, the “moisture sorption referred to the weight of the sample” value (25° C., listed as polymorphic form II) was “more than 6%”.
As for `CCN(CC)CCNC(=O)c1c(C)[nH]c(/C=C2\C(=O)Nc3ccc(F)cc32)c1C` [Polymorph III, N-[2-(diethylamino)ethyl]-5-[(5-fluoro-1,2-dihydro-2-oxo-3H-indol-3-ylidene)methyl]-2,4-dimethyl-1H-pyrrole-3-carboxamide], the “hygroscopicity (in words)” value is recorded as “very low hygroscopicity; also recorded: not hygroscopic at all”. Besides, the “hygroscopicity (in words)” value (listed as polymorphic form III) is “not hygroscopic”. The “weight gain under DMSG” value (even at a relative humidity of 95%, 25° C.) was “does not gain weight”.

Values taken from patent US20110034703A1, “CRYSTAL FORMS OF N-[2-(DIETHYLAMINO)ETHYL]-5-[(5-FLUORO-1,2-DIHYDRO-2-OXO-3H-INDOL-3-YLIDENE)METHYL]-2,4-DIMETHYL-1H-PYRROLE-3-CARBOXAMIDE AND METHODS FOR THEIR PREPARATION” (ratiopharm GmbH, priority 2008, published 2011).
